Patent US12331106B2, “Anti-angiopoietin-2 antibodies that induce Tie2 activation” (Institute for Basic Science, priority 2018, dated 2025)
Where a chain is given by its changes, count along the chain named. One block for each molecule: values may come before it.

Assays:
[1] = system: choroidal neovascularization (CNV); test: Laser-induced CNV model, intravitreal injection: CNV regression and vascular leakage; type: in vivo, mice; details: 5 μg intravitreal at 7 days
Experimental: 2C8H11 antibody was tested for its ability to inhibit choroidal neovascularization (CNV), the hallmark of wet age-related macular degeneration (AMD) using laser-induced CNV model. After dilation of pupils with 5 mg/ml phenylephrine and 5 mg/ml tropicamide eye drops (Santen Pharmaceutical) and instillation of 0.5% proparacaine hydrochloride eye drops (Alcon) for topical anesthesia, laser photocoagulator (Lumenis Inc.) with a slit lamp delivery system was used with a glass coverslip as a contact lens to visualize the retina. Sufficient laser energy (532 nm wavelength, 250 mW power, 100 ms duration, 50 μm spot size) was delivered in 4 locations for each eye (the 3, 6, 9 and 12 o'clock positions of the posterior pole). Only burns that produced a bubble at the time of laser photocoagulation, indicating the rupture of the Bruch's membrane, were included in this study. Spots containing hemorrhage at the laser site were excluded from the analysis. To recapitulate a clinical situation, 2C8H11 (5 μg) was administered intravitreally to the mice at 7 days after laser photocoagulation (FIG. 13A). As a control or as for comparison, Fc or VEGF-Trap (5 μg each) was administered in the same manner to the mice. To intravitreally administer indicated reagents, ˜1 μl (5 mg/ml) containing 5 μg of each reagent was injected into the vitreal cavity using the Nanoliter 2000 micro-injector (World Precision Instruments) fitted with a glass capillary pipette. CD31+CNV volumes of the retinal pigment epithelium (RPE)-choroid-sclera flat mounts were calculated using the MATLAB® Image Processing Toolbox™ (Math Works, a comprehensive set of reference-standard algorithms and workflow apps for image processing, analysis, visualization, and algorithm development) at 14 days after laser photocoagulation. Anti-CD31 antibody (1:200, Millipore®) was used for the detection of endothelial cells of CNV. […] Combined fluorescein angiography (FA) and indocyanine green angiography (ICGA) enabled us to measure vascular leakage at the neovessels around the laser injury site. Continuous-wave laser modules at 488 nm and 785 nm were used as excitation sources for fluorescein and ICG, respectively. A raster scanning pattern of excitation lasers was achieved by a scanner system consisting of a rotating polygonal mirror (MC-5; Lincoln Laser) and a galvanometer-based scanning mirror (6230H; Cambridge technology), and delivered to the back aperture of an imaging lens. A high numerical aperture (NA) objective lens (PlanApo λ, NA 0.75; Nikon) was used as the imaging lens to provide wide-field fundus fluorescence images. Fluorescence signals detected by photomultiplier tubes (R9110; Hamamatsu Photonics) were digitized by frame grabber and reconstructed to images with size of 512×512 pixels per frame in real time. To visualize late-phase (6 min) FA and ICGA images utilizing the angiography system, 10 mg of fluorescein sodium (Alcon) and 0.15 mg of ICG (Daiichi Pharmaceutical) were administered intraperitoneally and intravenously, respectively. The imaging procedure was performed under systemic anesthesia and pupil dilation to improve the quality of images. Leaky areas from CNV were calculated as the total measured hyperfluorescent areas in FA images divided by the total measured CNV areas in ICGA images using a Java-based imaging software (ImajeJ; National Institutes of Health). […] Thus, the magnitude of the suppression of CNV and vascular leakage was quantitatively indistinguishable between VEGF-Trap and 2C8H11 in the mouse model of laser-induced CNV.

[2] = system: choroidal neovascularization (CNV) / choriocapillaris; test: Laser-induced CNV model, OCTA: CNV volume and choriocapillary regeneration (avascular space); type: in vivo, mice; details: for increased avascular space: 5 μg intravitreal at 7 days
Experimental: To determine the effect of 2C8H11 in CNV regression and choriocapillary regeneration after establishment of CNV, Fc, VEGF-Trap, control antibody or 2C8H11 (5 μg each) was given intravitreally to the mice by the Nanoliter 2000 micro-injector (World Precision Instruments) at 7 days after laser photocoagulation. Intra-vital optical coherence tomography angiography (OCTA) was performed at 6, 14, 21, and 35 days after laser photocoagulation (FIG. 14A). The retinochoroidal layers were imaged using a prototype high-speed swept-source optical coherence tomography (OCT) system, utilizing a custom ring cavity wavelength-swept laser centered at 1048 nm with an A-scan rate of 230 kHz. OCT images were collected in a 1.7 mm×1.7 mm field of view within the retino-choroidal layer to monitor regeneration of choroidal vasculatures at the site of laser photocoagulation after intravitreal injection of reagents. […] Then, by using automatic layer flattening and segmentation algorithms, cross-sectional OCT angiograms were flattened to RPE, and en face OCT angiograms were generated by separate projection of each flattened cross-sectional OCT angiogram in three depth ranges: inner retinal, outer retinal and choroidal layers. The outer plexiform layer and Bruch's membrane were defined as the boundaries separating inner retinal, outer retinal, and choroidal layers. The density of retina and choroid vessel was automatically calculated as the proportion of measured area occupied by flowing blood vessels defined as pixels having decorrelation values above the threshold level. Avascular pixels were detected from the en face OCT angiogram representing choroidal layer by means of the image processing toolbox of MATLAB® (Math Works). Then the total volume of the avascular space surrounding the laser injury site was calculated by summing the number of avascular pixels multiplied by the volume of one pixel. In order to analyze the changing complexion of avascular space volume, serially measured values in each eye were transformed into percentage change from baseline value. […] Overall, these findings indicate that both 2C8H11 and […] promotes regeneration of the choriocapillaris, while VEGF-Trap leads to choriocapillary regression in the laser-induced CNV model.

[3] = biological target: T1, hAng2 (Homo sapiens, UniProt O15123); test: OCTET affinity of humanized anti-Ang2 antibodies against hAng2; type: binding; details: humanized 4B9 antibodies (IgG1) fixed on AR2G biosensor; hAng2 50-0 nM
T1 sequence (O15123 19-496): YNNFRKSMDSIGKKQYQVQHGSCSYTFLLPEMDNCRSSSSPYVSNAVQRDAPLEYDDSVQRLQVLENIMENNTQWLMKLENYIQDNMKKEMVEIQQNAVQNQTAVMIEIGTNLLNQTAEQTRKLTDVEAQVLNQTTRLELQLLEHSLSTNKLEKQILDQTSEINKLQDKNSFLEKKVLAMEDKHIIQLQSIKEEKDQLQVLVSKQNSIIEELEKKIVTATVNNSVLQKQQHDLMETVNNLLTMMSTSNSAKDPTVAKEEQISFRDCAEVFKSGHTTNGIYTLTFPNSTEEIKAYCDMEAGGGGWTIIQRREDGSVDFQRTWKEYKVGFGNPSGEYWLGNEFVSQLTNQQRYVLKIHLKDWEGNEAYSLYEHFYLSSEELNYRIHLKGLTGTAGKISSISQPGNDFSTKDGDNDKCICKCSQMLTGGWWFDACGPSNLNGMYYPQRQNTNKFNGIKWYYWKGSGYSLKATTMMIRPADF

[4] = system: Tie2 receptor clustering / FOXO1 translocation in HUVECs; test: Tie2 clustering and FOXO1 translocation in HUVECs (immunofluorescence); type: cell-based, human; details: HUVECs; 30 min; compared to serum-starved control
Experimental: Tie2 clustering at cell-cell junction area and FOXO1 translocation from nucleus to cytosol by anti-Ang2 antibodies were examined in HUVECs by immunofluorescence. Specifically, HUVECs were seeded on 8 well slide chamber (Lab-Tek™ II) and maintained in EGM-2 medium for 2-3 days. At 100% confluence, the cells were serum starved with EBM-2 medium for 4 hrs and then treated with 1 μg/ml anti-Ang2 antibodies together with 1 μg/ml of hAng2 for 30 min. Thereafter, the cells were fixed with 4% formaldehyde in PBS at room temperature (RT) for 10 min, permeabilized with 0.1% TRITON™ X-100 (non-ionic polyoxyethylene surfactant) in PBS, blocked with 1% BSA in PBS at RT for 60 min, and incubated with primary antibodies at RT for 1 hr. The primary antibodies for hTie2, FOXO1, and Human Fc were used. The cells were then incubated with secondary antibodies (Invitrogen) in the dark at RT for 1 hr and mounted with VECTASHIELD® mounting medium with DAPI (Vector Labs, antifade mounting media optimized for immunofluorescence applications). Images were taken with a laser scanning confocal microscope (LSM880, Carl Zeiss).
2C8H11-induced Tie2 clustering and FOXO1 translocation was examined in a time-course study (from 10 min to 240 min). […] 6-4: Inhibition of Vascular Permeability by Humanized Anti-Ang2 Antibodies

Molecule: VEGF-Trap: VEGF-Trap, comparison agent given intravitreally, 5 μg [reference compound]
vascular leakage suppression compared with Fc ([1]; FA/ICGA, 14 days after laser photocoagulation): 37.0% | CNV regression compared with Fc (CD31+ CNV volume) ([1]; measured 14 days after laser photocoagulation): 64.4% | vascular leakage reduction between 6 and 14 days after laser photocoagulation ([1]; within-group): 45.6% | CNV volume in outer retinas (OCTA) ([2]; 5 μg intravitreal at 7 days after laser photocoagulation): markedly reduced CNV volume | increased avascular space ([2]; D14): 11.4% | increased avascular space ([2]; D21): 16.0% | increased avascular space ([2]; D35): 18.1%

B1: 4B9H21: humanized anti-Ang2 human IgG1 antibody from mouse 4B9; VH SEQ ID NO: 47, VL SEQ ID NO: 48 (antibody, V domains shown)
VH: QVQLVESGGGLVKPGGSLRLSCAASGFTFSDYYMYWVRQAPGKGLEWVSTISVGGSFTYYPDSVKGRFTISRDNAKNSLYLQMNSLRAEDTAVYYCARDWGLRPWFVYWGQGTLVTVSS
VL: DIQMTQSPSSLSASVGDRVTITCKASQDVSTAVAWYQQKPGKAPKLLIYWASTRHTGVPSRFSGSGSGTDFTLTISSLQPEDFATYYCQQHYSTPPTFGQGTKVEIK
modifications: human IgG1 constant regions; VH; VL
Kdis [3]: 8.94e-06 s⁻¹ | Kon [3]: 73700 M⁻¹ s⁻¹

Now from value to molecule:

Kdis [3]: 1.56e-05 s⁻¹ | Kon [3]: 93900 M⁻¹ s⁻¹
B2: 4B9H31: humanized anti-Ang2 human IgG1 antibody from mouse 4B9; VH SEQ ID NO: 51, VL SEQ ID NO: 52 (antibody, V domains shown)
VH: B1 VH with S49A
VL: B1 VL
modifications: human IgG1 constant regions; VH; VL

FOXO1 translocation from nucleus to cytosol [4]: negligibly induced
B3: Ang2: full-length human angiopoietin-2 protein (R&D Systems), Tie2 ligand, SEQ ID NO: 1 (protein)
chain: MWQIVFFTLSCDLVLAAAYNNFRKSMDSIGKKQYQVQHGSCSYTFLLPEMDNCRSSSSPYVSNAVQRDAPLEYDDSVQRLQVLENIMENNTQWLMKLENYIQDNMKKEMVEIQQNAVQNQTAVMIEIGTNLLNQTAEQTRKLTDVEAQVLNQTTRLELQLLEHSLSTNKLEKQILDQTSEINKLQDKNSFLEKKVLAMEDKHIIQLQSIKEEKDQLQVLVSKQNSIIEELEKKIVTATVNNSVLQKQQHDLMETVNNLLTMMSTSNSAKDPTVAKEEQISFRDCAEVFKSGHTTNGIYTLTFPNSTEEIKAYCDMEAGGGGWTIIQRREDGSVDFQRTWKEYKVGFGNPSGEYWLGNEFVSQLTNQQRYVLKIHLKDWEGNEAYSLYEHFYLSSEELNYRIHLKGLTGTAGKISSISQPGNDFSTKDGDNDKCICKCSQMLTGGWWFDACGPSNLNGMYYPQRQNTNKFNGIKWYYWKGSGYSLKATTMMIRPADF
modifications: Human Angiopoietin-2 full-length
